Data: patent US20160194380A1, “POTENT INHIBITORS OF HUMAN MATRIPTASE DERIVED FROM MCOTI-II VARIANTS” (MERCK PATENT GMBH, priority 2013, published 2016)
Where a SMILES comes first, the peptide text is derived from it. Bridges are numbered along the chain shown (N, C = ends).

Experiments:
[1] = test system: pro-uPA activation by matriptase-1 on human prostate carcinoma cancer cells (PC-3); assay: Cell inhibition assay: inhibition of pro-uPA activation on PC-3 cells; assay type: cell-based; conditions: overnight incubation, read-out: IC50 (uPA substrate turnover, indirect determination)
Description: Urokinase-type plasminogen activator (uPA) causes the degradation of the extracellular matrix and plays a critical role in tumor invasion and metastasis.
Human prostate cancer cells (PC-3, Merck KGaA) were cultured in DMEM medium with 10% FCS at 37° C. and 5% CO2, washed with cation-free PBS and harvested by scraping. In the following 1×10^5 cells were incubated in presence of 250 μM Bz-β-Ala-Gly-Arg-pNA.AcOH (American Diagnostica) and the inhibitor of interest in defined dilutions overnight. Product formation was monitored at 405 nm before and after incubation in a microplate reader. IC50 was calculated by non-linear regression using SigmaPlot 11.

[2] = biological target: T1, Bovine pancreatic trypsin (Bos taurus, UniProt P00760); assay: Protease inhibition assay, trypsin; assay type: biochemical; conditions: substrate-independent inhibition constant
T1 construct: purchased Sigma-Aldrich; host or cells: bovine pancreas
T1 sequence (P00760 24-246): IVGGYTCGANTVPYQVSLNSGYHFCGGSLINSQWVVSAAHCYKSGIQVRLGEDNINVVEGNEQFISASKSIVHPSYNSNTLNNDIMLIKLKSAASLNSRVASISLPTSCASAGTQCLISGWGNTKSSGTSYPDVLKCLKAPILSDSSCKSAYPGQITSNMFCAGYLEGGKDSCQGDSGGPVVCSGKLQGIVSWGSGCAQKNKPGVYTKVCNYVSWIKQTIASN
Description: (§1) D: Biol. Crystallogr., 69(2013), 114-120; Reinwarth, ChemBioChem, 14(2013), 137-146; Boy, Mol. Imaging Biol. 12(2010), 377-385] Measurements were carried out in triplicates using a Tecan Genios ELISA reader.

[3] = test system: Human matriptase-1; assay: Protease inhibition assay, matriptase-1; assay type: biochemical; conditions: matriptase-1 versus trypsin
Description: as §1

[4] = biological target: T2, Human matriptase-1 (Homo sapiens, UniProt Q9Y5Y6); assay: Protease inhibition assay, matriptase-1; assay type: biochemical; conditions: substrate-independent inhibition constant
T2 construct: made in house
T2 sequence (Q9Y5Y6 615-855 limits assumed): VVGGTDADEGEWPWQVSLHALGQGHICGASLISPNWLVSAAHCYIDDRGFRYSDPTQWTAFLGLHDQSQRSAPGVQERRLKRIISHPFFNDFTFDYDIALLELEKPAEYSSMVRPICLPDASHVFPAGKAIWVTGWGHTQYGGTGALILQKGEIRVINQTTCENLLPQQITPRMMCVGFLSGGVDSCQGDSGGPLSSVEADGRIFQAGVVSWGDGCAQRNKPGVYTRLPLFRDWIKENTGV
Description: as §1

[5] = biological target: T3, matriptase-1 (Homo sapiens, UniProt Q9Y5Y6); conditions: literature; cited from earlier work
T3 sequence (Q9Y5Y6 1-855): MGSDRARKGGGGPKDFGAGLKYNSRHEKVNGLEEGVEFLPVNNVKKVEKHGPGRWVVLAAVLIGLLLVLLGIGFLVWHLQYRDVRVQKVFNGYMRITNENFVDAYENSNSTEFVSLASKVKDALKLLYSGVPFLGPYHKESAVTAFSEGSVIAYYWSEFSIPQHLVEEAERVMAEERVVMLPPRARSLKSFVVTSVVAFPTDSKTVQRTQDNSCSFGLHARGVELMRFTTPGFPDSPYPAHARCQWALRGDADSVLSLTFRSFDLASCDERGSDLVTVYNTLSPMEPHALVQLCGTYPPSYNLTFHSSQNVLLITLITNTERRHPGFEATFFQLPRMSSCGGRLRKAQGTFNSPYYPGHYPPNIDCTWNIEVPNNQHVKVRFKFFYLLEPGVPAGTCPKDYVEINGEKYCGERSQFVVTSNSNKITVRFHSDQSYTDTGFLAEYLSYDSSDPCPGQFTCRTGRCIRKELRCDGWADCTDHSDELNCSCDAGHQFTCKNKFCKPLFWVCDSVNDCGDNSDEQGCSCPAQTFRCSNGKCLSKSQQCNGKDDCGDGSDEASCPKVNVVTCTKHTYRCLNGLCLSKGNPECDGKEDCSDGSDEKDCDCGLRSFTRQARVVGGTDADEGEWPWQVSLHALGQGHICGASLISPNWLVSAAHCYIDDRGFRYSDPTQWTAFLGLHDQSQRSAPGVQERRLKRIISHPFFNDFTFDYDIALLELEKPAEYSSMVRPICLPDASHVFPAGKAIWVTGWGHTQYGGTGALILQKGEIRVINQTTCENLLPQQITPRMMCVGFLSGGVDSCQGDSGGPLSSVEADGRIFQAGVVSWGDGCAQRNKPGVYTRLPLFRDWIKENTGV

CC[C@H](C)[C@@H]1NC(=O)[C@@H]2CSSC[C@H](NC(=O)[C@@H](NC(=O)CNC(=O)[C@@H](N)Cc3c[nH]c4ccccc34)C(C)C)C(=O)N3CCC[C@H]3C(=O)N[C@@H](CCCCN)C(=O)N[C@@H](C(C)C)C(=O)N[C@@H](CC(C)C)C(=O)N[C@@H](CCCNC(=N)N)C(=O)N[C@@H](CC(N)=O)C(=O)N[C@H]3CSSC[C@H](NC1=O)C(=O)N[C@@H](CC(C)C)C(=O)NCC(=O)N[C@@H](CC(N)=O)C(=O)NCC(=O)N[C@@H](Cc1ccc(O)cc1)C(=O)N[C@H](C(=O)NCC(N)=O)CSSC[C@H](NC(=O)[C@H](CC(=O)O)NC(=O)[C@H](CO)NC(=O)[C@H](CC(=O)O)NC(=O)[C@H](CCCNC(=N)N)NC(=O)[C@H](CCCNC(=N)N)NC3=O)C(=O)N1CCC[C@H]1C(=O)NCC(=O)N[C@@H](C)C(=O)N2 [Inhibitor 7] (H-WGVCPKVLRNCRRDSDCPGACICLGNGYCG-NH2; disulfide 4-21, 11-23, 17-29; N-terminus assumed)
IC50 [1]: 213 nM
Ki [2]: 35.8 ± 4.7 nM
Inhibitory activity for matriptase-1 relative to trypsin [3]: approximately fortyfold
Ki [4]: 0.83 ± 0.14 nM

CC[C@H](C)[C@@H]1NC(=O)[C@@H]2CSSC[C@H](NC(=O)[C@H](CCCNC(=N)N)NC(=O)[C@H](CCCNC(=N)N)NC(=O)[C@@H](N)CC(N)=O)C(=O)N3CCC[C@H]3C(=O)N[C@@H](CCCCN)C(=O)N[C@@H](C(C)C)C(=O)N[C@@H](CC(C)C)C(=O)N[C@@H](CCCCN)C(=O)N[C@@H](C)C(=O)N[C@H]3CSSC[C@H](NC1=O)C(=O)N[C@@H](CCCNC(=N)N)C(=O)NCC(=O)N[C@@H](CC(N)=O)C(=O)NCC(=O)N[C@@H](Cc1ccc(O)cc1)C(=O)N[C@H](C(=O)NCC(N)=O)CSSC[C@H](NC(=O)[C@H](CC(=O)O)NC(=O)[C@H](CO)NC(=O)[C@H](CC(=O)O)NC(=O)[C@H](CCCNC(=N)N)NC(=O)[C@H](CCCNC(=N)N)NC3=O)C(=O)N1CCC[C@H]1C(=O)NCC(=O)N[C@@H](C)C(=O)N2 [Inhibitor 5]
Ki [2]: 19.2 ± 2.8 nM
Ki [4]: 3.3 ± 0.4 nM

CC[C@H](C)[C@H](N)C(=O)NCC(=O)N[C@H](C(=O)N[C@H]1CSSC[C@@H]2NC(=O)[C@H](C)NC(=O)CNC(=O)[C@@H]3CCCN3C(=O)[C@@H]3CSSC[C@@H](C(=O)NCC(N)=O)NC(=O)[C@H](Cc4ccc(O)cc4)NC(=O)CNC(=O)[C@H](CC(N)=O)NC(=O)CNC(=O)[C@H](CCCNC(=N)N)NC(=O)[C@H](CSSC[C@H](NC(=O)[C@H](C)NC(=O)[C@H](CCCNC(=N)N)NC(=O)[C@H](CC(C)C)NC(=O)[C@H](CC(C)C)NC(=O)[C@H](CCCCN)NC(=O)[C@@H]4CCCN4C1=O)C(=O)N[C@@H](CCCNC(=N)N)C(=O)N[C@@H](CCCNC(=N)N)C(=O)N[C@@H](CC(=O)O)C(=O)N[C@@H](CO)C(=O)N[C@@H](CC(=O)O)C(=O)N3)NC(=O)[C@H]([C@@H](C)CC)NC2=O)C(C)C [Inhibitor 4] (H-IGVCPKLLRACRRDSDCPGACICRGNGYCG-NH2; disulfide 4-21, 11-23, 17-29)
Ki [2]: 31.7 ± 4.3 nM
Ki [4]: 4.4 ± 0.6 nM

H-R-Q-A-R-Bt
Ki (matriptase-1), previously reported [5]: picomolar
Selectivity, previously reported [5]: low selectivity

CC[C@H](C)[C@@H]1NC(=O)[C@@H]2CSSC[C@H](NC(=O)[C@@H](NC(=O)CNC(=O)[C@@H](N)CCCCN)C(C)C)C(=O)N3CCC[C@H]3C(=O)N[C@@H](CCCCN)C(=O)N[C@@H](C(C)C)C(=O)N[C@@H](CC(C)C)C(=O)N[C@@H](CCCNC(=N)N)C(=O)N[C@@H](CCCCN)C(=O)N[C@H]3CSSC[C@H](NC1=O)C(=O)N[C@@H](CCCNC(=N)N)C(=O)N[C@@H](C)C(=O)N[C@@H](CC(N)=O)C(=O)NCC(=O)N[C@@H](Cc1ccc(O)cc1)C(=O)N[C@H](C(=O)NCC(N)=O)CSSC[C@H](NC(=O)[C@H](CC(=O)O)NC(=O)[C@H](CO)NC(=O)[C@H](CC(=O)O)NC(=O)[C@H](CCCCN)NC(=O)[C@H](CCCNC(=N)N)NC3=O)C(=O)N1CCC[C@H]1C(=O)NCC(=O)N[C@@H](C)C(=O)N2 [Inhibitor 6] (H-KGVCPKVLRKCRKDSDCPGACICRANGYCG-NH2; disulfide 4-21, 11-23, 17-29)
Ki [2]: 22.3 ± 3 nM
Ki [4]: 7.8 ± 1 nM
